Test [1] has as its system 33 mature miRNAs with potential binding sites for 4. As to the kind of experiment: Profiling of mature miRNAs with potential binding sites in DU145 cells. The test is classed as cell-based, human. The source says:
We further probed the selectivity of 4 by studying its effect on levels of other mature miRNAs (FIG. 8C) and on pre-miR-17, -18a and -20a. We identified miRNAs with potential binding sites for 4, as determined by HiT-StARTS, using a database of RNA folds in the human miRNA transcriptome,^38 including the 5′G_U/3′CUA bulge common to the Dicer processing sites in miR-17, -18a and -20a (n=33). The potential binding sites for 4 can occur anywhere in the miRNA; that is, they were not confined to Drosha or Dicer processing sites. Other miRNAs that contain the 5′G_U/3′CUA motif have a much lower expression level than miR-17, miR-18a, and miR-20. Studying these RNAs could allow assessment of influence of expression level on compound potency and selectivity, an important consideration in RNA targeting that has largely gone unaddressed.
Collectively, it appears that it is easier to target and inhibit the biogenesis of highly expressed miRNAs than the ones that are of lower expression. Such effects have been well-documented in the protein-targeting community but until now have not been studied in RNA targeting endeavors.
Cell Culture: DU145 cells were cultured in growth medium (Roswell Park Memorial Institute medium (RPMI) supplemented with 10% fetal bovine serum (FBS)) at 37° C. and 5% CO2 […]

In another test the test system is mature miR-20a. As to the kind of experiment: RT-qPCR of mature miRNA levels in DU145 cells. The test is classed as cell-based. The settings on record: Homo sapiens, DU-145, read-out: IC50 for decrease of mature miRNA. On the procedure: (§1) In particular, the mature levels of each miRNA in the cluster were studied by RT-qPCR. In agreement with our in vitro Dicer processing studies (FIG. 8A and Figures S-58-S-62), 4 decreases the amount of mature miR-17, -18a, and -20a at low micromolar concentrations with an IC50 of ˜10 µM, but has no effect on miR-19a, -19b, and -92a (FIG. 8B).
(§2) Cell Culture: DU145 cells were cultured in growth medium (Roswell Park Memorial Institute medium (RPMI) supplemented with 10% fetal bovine serum (FBS)) at 37° C. and 5% CO2
(§3) Total RNA was extracted from cells using a Quick-RNA Miniprep Kit (Zymo Research) per the manufacturer's protocol. Approximately 200 ng of total RNA was used in reverse transcription (RT) reactions, which were completed using a miScript II RT kit (Qiagen) per the manufacturer's protocol. RT-qPCR was performed on a 7900HT Fast Real Time PCR System (Applied Biosystem) using power SYBR Green Master Mix (Applied Biosystems). All primer sets were purchased from Integrated DNA Technologies, Inc. (IDT) or Eurofins (Table S1). The expression levels of mature miRNAs were normalized to U6 small nuclear RNA or 18s rRNA.
In general terms: Quantitative PCR measures a nucleic acid by following its amplification.

Another test concerns mature miR-18a. Put plainly: RT-qPCR of mature miRNA levels in DU145 cells. The test is classed as cell-based. The settings on record: Homo sapiens, DU-145, read-out: IC50 for decrease of mature miRNA. The protocol:
as §1, §2, §3

For the next test, the system named is mature miR-17. Put plainly: RT-qPCR of mature miRNA levels in DU145 cells. The test is classed as cell-based. The settings on record: Homo sapiens, DU-145, read-out: IC50 for decrease of mature miRNA. On the procedure:
as §1, §2, §3

Test [2] concerns other miRNAs studied (of the 33 with potential binding sites). Put plainly: Chem-CLIP in DU145 cell lysates. The arrangement: species or system human. The settings on record: 10 μM, DU145 cell lysate. The protocol:
(§4) Chem-CLIP in Cell Lysates: DU145 cells were cultured as described above in 100 mm dishes and lysed with 500 μL of Cell Lysis Buffer (10 mM Tris pH 7.4, 0.25% Igepal CA-630 and 150 mM NaCl) for 5 min at room temperature. The cell lysate was then centrifuged and the supernatant collected. Next, 10 μM of 4 was added to the lysate in 1×PBS and the sample was incubated for 2 h at room temperature. The reaction was then directly used for pull-down by incubating with 50 μL of streptavidin resin in 1×PBS for 30 min at room temperature. […] RNA was eluted from the streptavidin beads by incubation with 100 μL of 1× Elution Buffer (10 mM EDTA and 95% formamide) at 65° C. for 20 min. The eluted RNA was cleaned up using a Quick-RNA Miniprep Kit (Zymo) per the manufacturer's protocol. RT-qPCR was completed as described above using 50 ng of total RNA in the RT reaction. Expression levels were normalized to 18S rRNA.

The next test addresses 4IL1 RNA. Put plainly: Competitive binding assay with 4-FL. The settings on record: RNA 4IL1, competitive binding with 4-FL; read-out: Binding affinity. The protocol:
(§5) Competitive binding assays were completed by incubating the RNA of interest with 100 nM 4-FL and increasing concentrations of 4. The resulting curves were fit to equation 4:
(§6) [formula] where θ is the percentage of 4-FL bound, [4-FL] is the concentration of 4-FL, Kt is the dissociation constant of RNA and 4-FL, [RNA] is the concentration of RNA, Ct is the concentration of 4, Kd is the dissociation constant for 4, and A is a constant.

A further test has as its target 4IL8 RNA. As to the kind of experiment: Competitive binding assay with 4-FL. The settings on record: RNA 4IL8, competitive binding with 4-FL; read-out: Binding affinity. On the procedure:
as §5, §6

For a further test, the system named is pre-miR-17. As to the kind of experiment: Chem-CLIP in DU145 cell lysates. The test is classed as binding, human. The settings on record: 10 μM, DU145 cell lysate. On the procedure:
as §4

Another test has as its system pre-miR-20a. As to the kind of experiment: Chem-CLIP in DU145 cell lysates. The test is classed as binding, human. The settings on record: 10 μM, DU145 cell lysate. On the procedure: as §4
Another test has as its system pre-miR-18a. Put plainly: Chem-CLIP in DU145 cell lysates. The test is classed as binding, human. The settings on record: 10 μM, DU145 cell lysate. The protocol: as §4

Usually IC50 stands for the concentration that gives 50% inhibition. For the molecule `CN1CCN(c2ccc(-c3ccc4nc(-c5cc(C(C)(C)C)c(OCCCC(=O)NCCCN=[N+]=[N-])c(C(C)(C)C)c5)[nH]c4c3)cc2)CC1` [Compound 4], in [1], the “Effect on levels of 33 other mature miRNAs” value was “no statistically significant effect”. Also, the IC50 in the test on mature miR-20a, in the test on mature miR-18a and in the test with mature miR-17 was roughly 10 µM in each case. Further, the “Enrichment in pulled-down fraction” value in test [2] is listed as “no enrichment”; in the test on pre-miR-17, roughly 2 fold; in the test with pre-miR-20a, roughly 2 fold; in the test on pre-miR-18a, roughly 4 fold. Moreover, the Kd at 4IL1 RNA was 5.5 ± 1.3 µM; at 4IL8 RNA, 7.5 ± 0.6 µM.

The record behind these values is patent US12527788B2, “Defining RNA-small molecule affinity landscapes enables design of a small molecule inhibitor of an oncogenic non-coding RNA” (University of Florida Research Foundation, Incorporated, priority 2017, dated 2026).
